Data: patent publication US9145351B2, “Azole derivatives, methods for producing the same, intermediate thereof, agro-horticultural agents” (KUREHA CORPORATION, priority 2009, dated 2015)
Read-outs that look alike come from different tables or passages of the source.

What was measured:
Format in all cases: cell-based
Botritis cinerea = experiment: Plate medium fungicidal assay, gray mold B.c (Experimental Example 5)
Procedure: (§1) In this Experimental Example, the fungicidal effects of the inventive compounds on various phytopathogenic fungi for plants and hazardous microorganism for industrial materials were examined by the methods described below. Each inventive compound was dissolved in 2 ml of dimethyl sulfoxide. 0.6 ml of this solution was added to 60 nil of a PDA medium (potato dextrose agar medium) at about 60 degrees C., which was mixed thoroughly in a 100-ml conical flask, and poured into a dish, where it was solidified, thereby obtaining a plate medium containing the inventive compound at 50 mg/L and 5 mg/L. On the other hand, a subject microorganism previously cultured on a plate medium was cut out using a cork borer whose diameter was 4 mm, and inoculated to the test compound-containing plate medium described above. […] The growth degree of the microorganism on the test compound-containing plate medium thus observed was compared with the growth degree of the microorganism in the untreated group, and % mycelial growth inhibition was calculated by the following equation. R=100(dc−dt)/dc wherein R=% mycelial extension inhibition, dc=flora diameter in untreated plate, dt=flora diameter in treated plate. The results obtained as described above were evaluated as one of the 5 grades according to the following criteria. […] Gray mold (Botritis cinerea) B.c

Giberella fujikuroi = experiment: Plate medium fungicidal assay, rice bakanae disease G.f (Experimental Example 5)
Procedure: as §1, with “Rice bakanae disease (Giberella fujikuroi) G.f” for “Gray mold (Botritis cinerea) B.c”

Pyricularia oryzae = experiment: microbe, parasite or virus in culture; details: for inhibition at 5 µg/mL / inhibition at 50 µg/mL: Pyricularia oryzae
Rhynchosporium secalis = experiment: Plate medium fungicidal assay, barley leaf blotch R.sec (Experimental Example 5); details: for inhibition at 5 µg/mL / inhibition at 50 µg/mL: Rhynchosporium secalis
Procedure: as §1, with “Barley leaf blotch (Rhynchosporium secalis) R.sec” for “Gray mold (Botritis cinerea) B.c”

Ustilago nuda = experiment: Plate medium fungicidal assay, barley loose smut U.n (Experimental Example 5); details: for inhibition at 5 µg/mL / inhibition at 50 µg/mL: Ustilago nuda
Procedure: as §1, with “Barley loose smut (Ustilago nuda) U.n” for “Gray mold (Botritis cinerea) B.c”

Sclerotinia sclerotiorum = experiment: Plate medium fungicidal assay, Sclerotinia rot S.s (Experimental Example 5); details: for inhibition at 5 µg/mL / inhibition at 50 µg/mL: Sclerotinia sclerotiorum
Procedure: as §1, with “Sclerotinia rot (Sclerotinia sclerotiorum) S.s” for “Gray mold (Botritis cinerea) B.c”

[1] = plate medium containing compound at 5 mg/L
[2] = plate medium containing compound at 50 mg/L
[3] = plate medium containing compound at 5 mg/L, read-out: Growth inhibition grade, B.c
[4] = plate medium containing compound at 50 mg/L, read-out: Growth inhibition grade, B.c
[5] = plate medium containing compound at 5 mg/L, read-out: Growth inhibition grade, G.f
[6] = plate medium containing compound at 50 mg/L, read-out: Growth inhibition grade, G.f
[7] = read-out: Growth inhibition grade, P.o
[8] = plate medium containing compound at 5 mg/L, read-out: Growth inhibition grade, R.sec
[9] = plate medium containing compound at 50 mg/L, read-out: Growth inhibition grade, R.sec
[10] = plate medium containing compound at 5 mg/L, read-out: Growth inhibition grade, U.n
[11] = plate medium containing compound at 50 mg/L, read-out: Growth inhibition grade, U.n
[12] = plate medium containing compound at 5 mg/L, read-out: Growth inhibition grade, S.s
[13] = plate medium containing compound at 50 mg/L, read-out: Growth inhibition grade, S.s
[14] = plate medium, 5 mg/L, read-out: growth inhibition grade B.c
[15] = plate medium, 50 mg/L, read-out: growth inhibition grade B.c
[16] = plate medium, 5 mg/L, read-out: growth inhibition grade G.f
[17] = plate medium, 50 mg/L, read-out: growth inhibition grade G.f
[18] = read-out: growth inhibition grade P.o
[19] = plate medium, 5 mg/L, read-out: growth inhibition grade R.sec
[20] = plate medium, 50 mg/L, read-out: growth inhibition grade R.sec
[21] = plate medium, 5 mg/L, read-out: growth inhibition grade U.n
[22] = plate medium, 50 mg/L, read-out: growth inhibition grade U.n
[23] = plate medium, 5 mg/L, read-out: growth inhibition grade S.s
[24] = plate medium, 50 mg/L, read-out: growth inhibition grade S.s

Compound: Cc1ccc(C[C@@H]2CC[C@](C)(CCl)[C@@]2(O)Cn2cncn2)cc1 (relative stereo) [Compound I-80]
- Growth inhibition grade, B.c (Botritis cinerea; [1]): 5 (% Mycerial growth inhibition of 80% or higher)
- Growth inhibition grade, B.c (Botritis cinerea; [2]): 5 (% Mycerial growth inhibition of 80% or higher)
- Growth inhibition grade, G.f (Giberella fujikuroi; [1]): 5 (% Mycerial growth inhibition of 80% or higher)
- Growth inhibition grade, G.f (Giberella fujikuroi; [2]): 5 (% Mycerial growth inhibition of 80% or higher)
- Growth inhibition grade, P.o (Pyricularia oryzae; [1]): 5 (% Mycerial growth inhibition of 80% or higher)
- Growth inhibition grade, P.o (Pyricularia oryzae; [2]): 5 (% Mycerial growth inhibition of 80% or higher)
- Growth inhibition grade, R.sec (Rhynchosporium secalis; [1]): 5 (% Mycerial growth inhibition of 80% or higher)
- Growth inhibition grade, R.sec (Rhynchosporium secalis; [2]): 5 (% Mycerial growth inhibition of 80% or higher)
- Growth inhibition grade, U.n (Ustilago nuda; [1]): 5 (% Mycerial growth inhibition of 80% or higher)
- Growth inhibition grade, U.n (Ustilago nuda; [2]): 5 (% Mycerial growth inhibition of 80% or higher)
- Growth inhibition grade, S.s (Sclerotinia sclerotiorum; [1]): 5 (% Mycerial growth inhibition of 80% or higher)
- Growth inhibition grade, S.s (Sclerotinia sclerotiorum; [2]): 5 (% Mycerial growth inhibition of 80% or higher)

Compound: C[C@]1(CBr)CC[C@@H](Cc2ccc(Cl)cc2)[C@]1(O)Cn1cncn1 (racemic) [Compound I-25, (1RS,2SR,5SR)-2-bromomethyl-5-(4-chlorobenzyl)-2-methyl-1-(1H-1,2,4-triazol-1-ylmethyl)cyclopentanol]
- inhibition at 5 µg/mL (Botritis cinerea; [3]): > 80%
- inhibition at 50 µg/mL (Botritis cinerea; [4]): > 80%
- inhibition at 5 µg/mL (Giberella fujikuroi; [5]): > 80%
- inhibition at 50 µg/mL (Giberella fujikuroi; [6]): > 80%
- inhibition at 5 µg/mL (Pyricularia oryzae; [7]): > 80%
- inhibition at 50 µg/mL (Pyricularia oryzae; [7]): > 80%
- inhibition at 5 µg/mL (Rhynchosporium secalis; [8]): > 80%
- inhibition at 50 µg/mL (Rhynchosporium secalis; [9]): > 80%
- inhibition at 5 µg/mL (Ustilago nuda; [10]): 40 to 60%
- inhibition at 50 µg/mL (Ustilago nuda; [11]): > 80%
- inhibition at 5 µg/mL (Sclerotinia sclerotiorum; [12]): > 80%
- inhibition at 50 µg/mL (Sclerotinia sclerotiorum; [13]): > 80%

Compound: C[C@@]1(CCl)CC[C@H](Cc2ccc(Cl)cc2)[C@]1(O)Cn1cncn1 (racemic) [Compound I-401, (1RS,2RS,5RS)-5-(4-chlorobenzyl)-2-chloromethyl-2-methyl-1-[1,2,4]triazol-1-ylmethylcyclopentanol]
- inhibition at 5 µg/mL (Botritis cinerea; [14]): > 80%
- inhibition at 50 µg/mL (Botritis cinerea; [15]): > 80%
- inhibition at 5 µg/mL (Giberella fujikuroi; [16]): > 80%
- inhibition at 50 µg/mL (Giberella fujikuroi; [17]): > 80%
- inhibition at 5 µg/mL (Pyricularia oryzae; [18]): > 80%
- inhibition at 50 µg/mL (Pyricularia oryzae; [18]): > 80%
- inhibition at 5 µg/mL (Rhynchosporium secalis; [19]): > 80%
- inhibition at 50 µg/mL (Rhynchosporium secalis; [20]): > 80%
- inhibition at 5 µg/mL (Ustilago nuda; [21]): 60 to 80%
- inhibition at 50 µg/mL (Ustilago nuda; [22]): > 80%
- inhibition at 5 µg/mL (Sclerotinia sclerotiorum; [23]): > 80%
- inhibition at 50 µg/mL (Sclerotinia sclerotiorum; [24]): > 80%

Compound: C[C@@]1(CCCl)CC[C@@H](Cc2ccc(Cl)cc2)[C@]1(O)Cn1cncn1 (racemic) [Compound I-104, (1RS,2SR,5SR)-5-(4-chlorobenzyl)-2-(2-chloroethyl)-2-methyl-1-(1H-1,2,4-triazol-1-ylmethyl)cyclopentanol]
- inhibition at 5 µg/mL (Botritis cinerea; [14]): > 80%
- inhibition at 50 µg/mL (Botritis cinerea; [15]): > 80%
- inhibition at 5 µg/mL (Giberella fujikuroi; [16]): > 80%
- inhibition at 50 µg/mL (Giberella fujikuroi; [17]): > 80%
- inhibition at 5 µg/mL (Pyricularia oryzae; [18]): > 80%
- inhibition at 50 µg/mL (Pyricularia oryzae; [18]): > 80%
- inhibition at 5 µg/mL (Rhynchosporium secalis; [19]): > 80%
- inhibition at 50 µg/mL (Rhynchosporium secalis; [20]): > 80%
- inhibition at 5 µg/mL (Ustilago nuda; [21]): > 80%
- inhibition at 50 µg/mL (Ustilago nuda; [22]): > 80%
- inhibition at 5 µg/mL (Sclerotinia sclerotiorum; [23]): > 80%
- inhibition at 50 µg/mL (Sclerotinia sclerotiorum; [24]): > 80%

Compound: C[C@]1(CCl)CC[C@H](Cc2ccc(Cl)cc2)[C@]1(O)Cn1cncn1 (racemic) [Compound I-301, (1RS,2SR,5RS)-5-(4-chlorobenzyl)-2-chloromethyl-2-methyl-1-[1,2,4]triazol-1-ylmethylcyclopentanol]
- inhibition at 5 µg/mL (Botritis cinerea; [14]): > 80%
- inhibition at 50 µg/mL (Botritis cinerea; [15]): > 80%
- inhibition at 5 µg/mL (Giberella fujikuroi; [16]): > 80%
- inhibition at 50 µg/mL (Giberella fujikuroi; [17]): > 80%
- inhibition at 5 µg/mL (Pyricularia oryzae; [18]): > 80%
- inhibition at 50 µg/mL (Pyricularia oryzae; [18]): > 80%
- inhibition at 5 µg/mL (Rhynchosporium secalis; [19]): > 80%
- inhibition at 50 µg/mL (Rhynchosporium secalis; [20]): > 80%
- inhibition at 5 µg/mL (Ustilago nuda; [21]): > 80%
- inhibition at 50 µg/mL (Ustilago nuda; [22]): > 80%
- inhibition at 5 µg/mL (Sclerotinia sclerotiorum; [23]): > 80%
- inhibition at 50 µg/mL (Sclerotinia sclerotiorum; [24]): > 80%

Compound: C[C@]1(CCl)CC[C@@H](Cc2ccc(Cl)cc2)[C@]1(O)Cn1cncn1 (racemic) [Compound I-1, (1RS,2SR,5SR)-5-(4-chlorobenzyl)-2-chloromethyl-2-methyl-1-(1H-1,2,4-triazol-1-ylmethyl)cyclopentanol]
- inhibition at 5 µg/mL (Botritis cinerea; [3]): > 80%
- inhibition at 50 µg/mL (Botritis cinerea; [4]): > 80%
- inhibition at 5 µg/mL (Botritis cinerea; [14]): > 80%
- inhibition at 50 µg/mL (Botritis cinerea; [15]): > 80%
- inhibition at 5 µg/mL (Giberella fujikuroi; [5]): > 80%
- inhibition at 50 µg/mL (Giberella fujikuroi; [6]): > 80%
- inhibition at 5 µg/mL (Giberella fujikuroi; [16]): > 80%
- inhibition at 50 µg/mL (Giberella fujikuroi; [17]): > 80%
- inhibition at 5 µg/mL (Pyricularia oryzae; [7]): > 80%
- inhibition at 50 µg/mL (Pyricularia oryzae; [7]): > 80%
- inhibition at 5 µg/mL (Pyricularia oryzae; [18]): > 80%
- inhibition at 50 µg/mL (Pyricularia oryzae; [18]): > 80%
- inhibition at 5 µg/mL (Rhynchosporium secalis; [8]): > 80%
- inhibition at 50 µg/mL (Rhynchosporium secalis; [9]): > 80%
- inhibition at 5 µg/mL (Rhynchosporium secalis; [19]): > 80%
- inhibition at 50 µg/mL (Rhynchosporium secalis; [20]): > 80%
- inhibition at 5 µg/mL (Ustilago nuda; [10]): > 80%
- inhibition at 50 µg/mL (Ustilago nuda; [11]): > 80%
- inhibition at 5 µg/mL (Ustilago nuda; [21]): > 80%
- inhibition at 50 µg/mL (Ustilago nuda; [22]): > 80%
- inhibition at 5 µg/mL (Sclerotinia sclerotiorum; [12]): > 80%
- inhibition at 50 µg/mL (Sclerotinia sclerotiorum; [13]): > 80%
- inhibition at 5 µg/mL (Sclerotinia sclerotiorum; [23]): > 80%
- inhibition at 50 µg/mL (Sclerotinia sclerotiorum; [24]): > 80%
